# Source: PMC10064984, “Anti-cyclooxygenase, anti-glycation, and anti-skin aging effect of Dendrobium officinale flowers’ aqueous extract and its phytochemical validation in aging” (Frontiers in Immunology, 2023)
# Where “and” joins values, the source holds several entries; their conditions need not be identical. Equal values may be shown once.
# Experiments:
# Type in all cases: biochemical
# DPPH· scavenging = details: mean ± SD, n = 3
# [1] = Fluorescent AGEs formation in a BSA-fructose/glucose system; details: for inhibition of fluorescent AGEs formation (BSA-抗糖化), single replicate: individual replicate; for inhibition of fluorescent AGEs formation (BSA-抗糖化), 平均 (mean): mean of 3 replicates; for IC50: mean ± SD, n = 3, read-out: BSA-glycation IC50
# Method: Glycated protein was prepared in vitro by incubating BSA in the presence of D-glucose (GLC) and D-fructose (FRC). The DOF extract and specific standards were dissolved in DMSO:water (1:4). […] The assay was performed in triplicate, and AG was used as a positive control. The percentage inhibition of fluorescent AGE formation was calculated using the following equation: […] Where IF sample is fluorescence intensity in the presence of samples and BSA, IF sample control is fluorescence intensity in the presence of samples without BSA, IF control is fluorescence intensity without samples, and IF blank control is fluorescence intensity without samples and BSA.
# [2] = ABTS·+ decolourisation capacity; details: mean ± SD, n = 3
# Method: Fast colourimetric methods were slightly modified for the in vitro assessment of DPPH· scavenging ([19]), ABTS·+ decolourisation capacity ([20]), and total antioxidant capacity of FRAP ([21]). The stock solutions of derivatisation reagents were diluted as follows before measurement: DPPH was diluted with absolute ethanol until the absorbance was 0.8 ± 0.05 at λ = 517 nm. ABTS working solution was prepared with phosphate buffer (0.2 M, pH 7.4) to display absorbance of 0.8 ± 0.05 at λ = 729 nm, based on a previous study ([22]). The FRAP solution was prepared according to the instructions of the FRAP kit. Absorbances were measured using an automatic microplate reader (Molecular Group Ltd., USA), and all analyses were performed using 96-well plates. All measurements were performed in triplicate, and Trolox was used as a positive control.
# For ABTS·+ decolourisation capacity, 100 μl of ABTS working solution was mixed with 200 μl of sample solution, and the absorbance was recorded after 10 min at 729 nm. Phosphate buffer (0.2 M, pH 7.4) was used as a negative control.
# DPPH· and ABTS·+ radical scavenging activities of the tested sample were both calculated using the following formula:
# % inhibition = (A control − A sample)/A control × 100
# Where A control and A sample represent the absorbance of the control and test samples, respectively. The IC50 was calculated graphically from the dose-inhibition curves.
# COX-2 = molecular target: T1, COX-2 (Homo sapiens, UniProt P35354); assay: Anti-COX-2 assay (COX-2 Inhibitor Screening Kit); details: for COX-2 inhibition: single replicates
# T1 construct: purchased Beyotime S0168
# T1 sequence (P35354 18-604): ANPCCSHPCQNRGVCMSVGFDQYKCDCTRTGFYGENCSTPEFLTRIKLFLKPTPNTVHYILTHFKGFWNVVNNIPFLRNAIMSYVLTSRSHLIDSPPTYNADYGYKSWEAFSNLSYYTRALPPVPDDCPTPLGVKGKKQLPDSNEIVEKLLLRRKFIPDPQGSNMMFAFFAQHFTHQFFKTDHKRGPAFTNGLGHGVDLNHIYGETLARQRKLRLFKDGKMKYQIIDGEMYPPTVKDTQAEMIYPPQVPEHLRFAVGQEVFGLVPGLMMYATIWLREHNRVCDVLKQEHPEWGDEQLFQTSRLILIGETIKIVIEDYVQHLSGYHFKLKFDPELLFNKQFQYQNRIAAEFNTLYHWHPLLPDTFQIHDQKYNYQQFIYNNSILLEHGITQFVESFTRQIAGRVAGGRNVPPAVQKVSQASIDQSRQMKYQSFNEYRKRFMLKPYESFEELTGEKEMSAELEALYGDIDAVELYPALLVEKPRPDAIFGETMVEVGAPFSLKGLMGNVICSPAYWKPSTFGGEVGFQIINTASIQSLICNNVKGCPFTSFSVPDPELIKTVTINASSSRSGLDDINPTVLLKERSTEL
# [3] = FRAP total antioxidant capacity; details: lower part of sheet (compound series);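 also: colourimetric FRAP kit assay read as absorbance in 96-well plates, values as mM FeSO4 via standard curve, EC1 being sample concentration matching 1.0 mmol/L FeSO4, Trolox positive control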
SMILES,IC50 (DPPH· scavenging) [µM],"inhibition of fluorescent AGEs formation (BSA-抗糖化), 平均 (mean) ([1]; 15.625 µM) [%]","inhibition of fluorescent AGEs formation (BSA-抗糖化), 平均 (mean) ([1]; 31.25 µM) [%]","inhibition of fluorescent AGEs formation (BSA-抗糖化), 平均 (mean) ([1]; 62.5 µM) [%]","inhibition of fluorescent AGEs formation (BSA-抗糖化), 平均 (mean) ([1]; 125 µM) [%]","inhibition of fluorescent AGEs formation (BSA-抗糖化), 平均 (mean) ([1]; 250 µM) [%]","inhibition of fluorescent AGEs formation (BSA-抗糖化), 平均 (mean) ([1]; 500 µM) [%]","inhibition of fluorescent AGEs formation (BSA-抗糖化), 平均 (mean) ([1]; 1000 µM) [%]","inhibition of fluorescent AGEs formation (BSA-抗糖化), 平均 (mean) ([1]; 2000 µM) [%]","inhibition of fluorescent AGEs formation (BSA-抗糖化), 平均 (mean) ([1]; 4000 µM) [%]",IC50 [1] [µM],IC50 [2] [µM],COX-2 inhibition (in words) (COX-2),FRAP EC1 [3] [µM],also measured
"O=c1cc(-c2ccc(O)cc2)oc2c(C3OCC(O)C(O)C3O)c(O)c(C3OCC(O)C(O)C3O)c(O)c12 [compound 26, Apigenin-6-C-α-L-arabinoside-8-C-β-D-xyloside]",> 5000,0.045,7.02,16.21,28.63,47.99,66.98,81.79,90.42,95.27,273 ± 4.7,80.36 ± 0.77,no inhibitory effects,>5000,"inhibition of fluorescent AGEs formation (BSA-抗糖化), single replicate ([1]; 15.625 µM, listed as T10, 15.625 µM): -0.15% and 0.19% and 0.09%; inhibition of fluorescent AGEs formation (BSA-抗糖化), single replicate ([1]; 31.25 µM, listed as T10, 31.25 µM): 6.49% and 8.31% and 6.26%; inhibition of fluorescent AGEs formation (BSA-抗糖化), single replicate ([1]; 62.5 µM, listed as T10, 62.5 µM): 15.98% and 16.92% and 15.72%; inhibition of fluorescent AGEs formation (BSA-抗糖化), single replicate ([1]; 125 µM, listed as T10, 125 µM): 27.64% and 28.36% and 29.90%; inhibition of fluorescent AGEs formation (BSA-抗糖化), single replicate ([1]; 250 µM, listed as T10, 250 µM): 48.76% and 48.06% and 47.15%; inhibition of fluorescent AGEs formation (BSA-抗糖化), single replicate ([1]; 500 µM, listed as T10, 500 µM): 67.27% and 67.99% and 65.66%; inhibition of fluorescent AGEs formation (BSA-抗糖化), single replicate ([1]; 1000 µM, listed as T10, 1000 µM): 82.36% and 81.32% and 81.69%; inhibition of fluorescent AGEs formation (BSA-抗糖化), single replicate ([1]; 2000 µM, listed as T10, 2000 µM): 90.52% and 90.97% and 89.78%; inhibition of fluorescent AGEs formation (BSA-抗糖化), single replicate ([1]; 4000 µM (series head 'T9 4000µM', 2-fold dilutions), listed as T10): 95.10% and 95.64% and 95.09%"
"O=c1c(O[C@@H]2O[C@H](CO)[C@@H](O)[C@H](O)[C@H]2O)c(-c2ccc(O)cc2)oc2cc(O)cc(O)c12 [compound 31, Astragalin]",> 5000,3.23,7.45,17.74,29.92,47.12,66.84,78.97,89.80,94.53,276 ± 33,34.31 ± 0.1,no inhibitory effects,>5000,"inhibition of fluorescent AGEs formation (BSA-抗糖化), single replicate ([1]; 15.625 µM, listed as T13, 15.625 µM): 3.97% and 2.43% and 3.28%; inhibition of fluorescent AGEs formation (BSA-抗糖化), single replicate ([1]; 31.25 µM, listed as T13, 31.25 µM): 6.47% and 9.23% and 6.65%; inhibition of fluorescent AGEs formation (BSA-抗糖化), single replicate ([1]; 62.5 µM, listed as T13, 62.5 µM): 16.61% and 18.46% and 18.15%; inhibition of fluorescent AGEs formation (BSA-抗糖化), single replicate ([1]; 125 µM, listed as T13, 125 µM): 25.98% and 33.83% and 29.94%; inhibition of fluorescent AGEs formation (BSA-抗糖化), single replicate ([1]; 250 µM, listed as T13, 250 µM): 39.66% and 53.40% and 48.31%; inhibition of fluorescent AGEs formation (BSA-抗糖化), single replicate ([1]; 500 µM, listed as T13, 500 µM): 65.95% and 67.35% and 67.23%; inhibition of fluorescent AGEs formation (BSA-抗糖化), single replicate ([1]; 1000 µM, listed as T13, 1000 µM): 79.55% and 78.97% and 78.39%; inhibition of fluorescent AGEs formation (BSA-抗糖化), single replicate ([1]; 2000 µM, listed as T13, 2000 µM): 89.49% and 89.99% and 89.93%; inhibition of fluorescent AGEs formation (BSA-抗糖化), single replicate ([1]; 4000 µM (series head 'T9 4000µM', 2-fold dilutions), listed as T13): 94.89% and 93.91% and 94.80%; COX-2 inhibition (COX-2; 3.125 μM, listed as T13, 3.125 µM): 9.26% and 13.01% and -4.90%; COX-2 inhibition (COX-2; 6.25 μM, listed as T13, 6.25 µM): 7.55% and 7.65% and -2.11%; COX-2 inhibition (COX-2; 12.5 μM, listed as T13, 12.5 µM): 5.53% and -11.45% and -30.89%; COX-2 inhibition (COX-2; 25 μM, listed as T13, 25 µM): -6.59% and -8.12% and -23.58%; COX-2 inhibition (COX-2; 50 μM, listed as T13, 50 µM): -22.46% and -22.25% and -29.37%; COX-2 inhibition (COX-2; 100 μM, listed as T13, 100 µM): -33.58% and -17.93% and -41.32%; COX-2 inhibition (COX-2; 200 μM, listed as T13, 200 µM): -24.47% and -35.20% and -49.99%"
